This is an account of results in patent publication US12138398B2, “Methods and devices for providing a stimulus to a subject to induce gamma oscillations” (Massachusetts Institute of Technology, priority 2015, dated 2024).

“Also recorded” adds a separate entry of the source.

In assay [1] the test system is CK-p25 Tg mice. The experiment in a line: Brain weight and lateral ventricle expansion in CK-p25 Tg mice. It counts as in vivo, mouse. The method, then: A study was conducted to examine the effect of gamma exposure and/or administration in accordance with some embodiments on DNA damage and neuronal loss in the visual cortex of a subject. For the study, an inducible mouse model of p25 accumulation (i.e., a creatine kinase carboxyl-terminal fragment p25 Tg mouse (CK-p25 Tg mouse)) was used. […] A study was conducted to compare groups of mice under different treatment regimens. FIG. 84 is a diagram of the groups including CK-control mice 8400, untreated CK-p25 Tg mice 8402, CK-p25 Tg mice treated with memantine (10 mg/kg daily) 8404, CK-p25 Tg mice exposed to the 40-Hz light flicker (one hour daily for 6 weeks) in accordance with some embodiments 8406, and CK-p25 Tg mice treated with memantine and also exposed to the 40-Hz light flicker 8408. Memantine is a medication used with limited success to treat severe AD by blocking NMDA receptors, thereby acting on the glutamatergic system. […] For example, gamma exposure reduced and/or prevented CKp-25-induced loss of brain weight. FIG. 85 is bar graph comparing brain weight change in CK-control mice, untreated CK-p25 Tg mice, CK-p25 Tg mice treated with memantine, CK-p25 Tg mice exposed to the 40-Hz light flicker in accordance with some embodiments, and CK-p25 Tg mice treated with both memantine and the 40-Hz light flicker. Brain weight loss was pronounced in untreated CK-p25 Tg mice, CK-p25 Tg mice treated with memantine, and CK-p25 Tg mice treated with both memantine and the 40-Hz light flicker. However, CK-p25 Tg mice exposed to the 40-Hz light flicker in accordance with some embodiments retained more brain weight. […] For example, gamma exposure reduced and/or prevented CKp-25-induced abnormal lateral ventricle expansion in subjects. FIG. 86 is bar graph comparing fold change of lateral ventricle expansion in CK-control mice, untreated CK-p25 Tg mice, CK-p25 Tg mice treated with memantine, CK-p25 Tg mice exposed to the 40-Hz light flicker in accordance with some embodiments, and CK-p25 Tg mice treated with both memantine and the 40-Hz light flicker with expansion in the CK-control mice as a baseline. Lateral ventricle expansion was pronounced in untreated CK-p25 Tg mice, CK-p25 Tg mice treated with memantine, and CK-p25 Tg mice treated with both memantine and the 40-Hz light flicker. Lateral ventricles in CK-p25 Tg mice exposed to the 40-Hz light flicker in accordance with some embodiments expanded much less than the lateral ventricles in the other CK-p25 Tg mice.

The test system of assay [2] is CK-p25 Tg mice. The assay is described as follows: Cortical (Hoechst) and neuronal (NeuN) layer thickness in CK-p25 Tg mice. It counts as in vivo, mouse. Particulars: for thickness of neuronal layer of the insular cortex / thickness of SS1-neuronal layer: NeuN; for thickness of SS1-neuronal layer / thickness of SS1-cortical layer: somatosensory cortex.
Where [3] appears, read: memantine + 40-Hz light flicker.

With `CC12CC3CC(C)(C1)CC(N)(C3)C2` [memantine], in assay [1] (memantine 10 mg/kg daily), the Brain weight loss entry was “pronounced” and the Lateral ventricle expansion result is given as “pronounced; also recorded: largest”. Besides, in assay [1] (setting [3]), the Brain weight loss result was “pronounced” and the Lateral ventricle expansion entry was “pronounced; also recorded: largest”. Further, in assay [2] (setting [3]), the thickness of neuronal layer of the insular cortex turned out to be 848 ± 15 µm, the thickness of cortical layer of the insular cortex is 965 ± 16 µm, the thickness of SS1-neuronal layer is 650 ± 11 µm and the thickness of SS1-cortical layer is 778 ± 13 µm. Further, in assay [2] (memantine alone), the thickness of neuronal layer of the insular cortex is 850 ± 18 µm, the thickness of cortical layer of the insular cortex is 983 ± 12 µm, the thickness of SS1-neuronal layer was found to be 629 ± 9 µm and the thickness of SS1-cortical layer came out at 756 ± 11 µm.
